Results reported in ChEMBL document CHEMBL1201862, “PubChem BioAssay data set” (2004).
The source made the active and inactive calls.

What was measured:
Coagulation factor XII = biological target: T1, Coagulation factor XII (Homo sapiens, UniProt P00748); assay type: functional;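 note: activated factor XIIa alpha cleaving a fluorogenic AMC peptide substrate; inhibitor potency from loss of enzyme activity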
T1 sequence (P00748 whole entry): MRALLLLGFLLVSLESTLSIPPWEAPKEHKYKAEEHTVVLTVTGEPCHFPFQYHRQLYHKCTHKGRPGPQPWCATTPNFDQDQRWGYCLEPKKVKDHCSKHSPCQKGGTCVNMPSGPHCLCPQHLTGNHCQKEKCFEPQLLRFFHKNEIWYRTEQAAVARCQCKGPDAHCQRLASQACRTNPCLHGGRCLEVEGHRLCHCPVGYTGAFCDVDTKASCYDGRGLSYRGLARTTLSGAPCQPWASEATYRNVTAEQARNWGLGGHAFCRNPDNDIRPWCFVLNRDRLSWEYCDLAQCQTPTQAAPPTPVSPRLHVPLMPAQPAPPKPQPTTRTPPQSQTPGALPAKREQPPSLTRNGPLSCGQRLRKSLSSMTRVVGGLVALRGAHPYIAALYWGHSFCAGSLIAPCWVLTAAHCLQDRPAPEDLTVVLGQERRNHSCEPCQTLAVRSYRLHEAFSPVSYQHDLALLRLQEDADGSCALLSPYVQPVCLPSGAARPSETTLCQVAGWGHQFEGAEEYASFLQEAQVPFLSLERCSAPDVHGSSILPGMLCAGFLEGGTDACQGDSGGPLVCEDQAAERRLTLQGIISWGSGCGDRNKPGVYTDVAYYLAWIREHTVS

Large T antigen = Large T antigen (Simian virus 40, UniProt P03070); assay type: functional, Betapolyomavirus macacae;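 note: Confirmatory-stage PubChem screen for compounds that inhibit SV40 T antigen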
Large T antigen, sequence (P03070 whole entry): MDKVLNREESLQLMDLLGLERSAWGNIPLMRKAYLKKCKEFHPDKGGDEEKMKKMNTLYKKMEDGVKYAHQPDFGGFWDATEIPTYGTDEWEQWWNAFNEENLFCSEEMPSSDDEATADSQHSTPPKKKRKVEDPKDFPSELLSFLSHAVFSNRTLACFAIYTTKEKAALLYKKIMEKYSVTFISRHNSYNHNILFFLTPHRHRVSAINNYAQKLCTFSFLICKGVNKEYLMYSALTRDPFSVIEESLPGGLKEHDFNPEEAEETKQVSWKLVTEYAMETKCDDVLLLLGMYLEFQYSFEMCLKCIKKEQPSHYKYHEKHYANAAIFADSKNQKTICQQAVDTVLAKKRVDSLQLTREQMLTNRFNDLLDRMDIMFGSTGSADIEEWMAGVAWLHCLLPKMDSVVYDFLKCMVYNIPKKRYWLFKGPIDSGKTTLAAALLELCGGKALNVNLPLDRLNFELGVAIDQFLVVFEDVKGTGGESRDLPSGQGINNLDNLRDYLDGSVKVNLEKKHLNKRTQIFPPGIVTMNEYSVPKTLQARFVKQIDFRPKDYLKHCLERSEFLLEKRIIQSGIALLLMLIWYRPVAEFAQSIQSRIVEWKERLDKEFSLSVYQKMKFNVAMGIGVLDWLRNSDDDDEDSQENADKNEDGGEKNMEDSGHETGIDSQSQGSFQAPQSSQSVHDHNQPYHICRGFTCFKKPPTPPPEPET

Cytochrome P450 2D6 = Cytochrome P450 2D6 (Homo sapiens, UniProt P10635);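 note: CYP2D6 member of a cytochrome P450 panel assay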
Cytochrome P450 2D6, sequence (P10635 whole entry): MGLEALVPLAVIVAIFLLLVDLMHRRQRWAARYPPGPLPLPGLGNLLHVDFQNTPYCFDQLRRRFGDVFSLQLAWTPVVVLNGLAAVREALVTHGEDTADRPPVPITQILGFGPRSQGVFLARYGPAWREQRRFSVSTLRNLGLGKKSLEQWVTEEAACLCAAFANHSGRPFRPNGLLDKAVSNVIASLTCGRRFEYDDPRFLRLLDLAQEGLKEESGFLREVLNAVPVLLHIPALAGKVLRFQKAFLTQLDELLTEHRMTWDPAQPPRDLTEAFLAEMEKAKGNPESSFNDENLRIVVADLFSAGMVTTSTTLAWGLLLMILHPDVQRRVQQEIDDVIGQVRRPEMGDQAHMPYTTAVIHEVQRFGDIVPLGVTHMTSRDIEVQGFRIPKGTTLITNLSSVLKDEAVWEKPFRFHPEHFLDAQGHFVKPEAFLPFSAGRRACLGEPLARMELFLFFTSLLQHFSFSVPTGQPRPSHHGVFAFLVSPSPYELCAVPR

[1] = Luminescence Cell-Based Dose Response HTS to Identify Activators of Luciferase Translation or Activity in H4 […] Cells. [Related pubchem assays: 1829 (Project Summary), 1814 (Primary HTS)]; assay type: functional
H4 = assay: Luminescence Cell-Based Dose Response HTS to Identify Activators of 5'UTR Stem-Loop Driven Prion Protein mRNA Translation in H4 Neuroglioblastoma Cells. [Related pubchem assays: 1829 (Project Summary), 1814 (Primary HTS)]; assay type: functional; conditions: Homo sapiens
BJ [2] = assay: cytotoxicity toward BJ-TERT fibroblasts, dose response, cell-based, RAS-independent, luminescence (AID 1933); assay type: functional; conditions: Homo sapiens
[3] = cytotoxicity toward DRD oncogenic fibroblasts, dose response, cell-based, non-viral oncogenic, luminescence (AID 1934); assay type: functional; conditions: Homo sapiens
[4] = Vero E6 cell cytotoxicity, dose response, cytotoxicity control for non-replicating M. tuberculosis project, secondary assay (AID 492998); assay type: functional, VeroE6; conditions: Vero C1008
[5] = HepG2 cell cytotoxicity, dose response, cytotoxicity control for non-replicating M. tuberculosis project (AID 489018); assay type: functional; conditions: Mycobacterium tuberculosis
cells = assay type: functional
BJ [6] = assay: cytotoxicity toward BJ-TERT-LT-ST fibroblasts, dose response, cell-based, RAS-independent, luminescence (AID 1935); assay type: functional; conditions: Homo sapiens;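 note: BJ fibroblasts immortalized with TERT plus LT and ST oncogenes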
[7] = biological target: T2, Microphthalmia-associated transcription factor (Homo sapiens, UniProt O75030); assay: TRPM1 promoter luciferase signal decrease, dose response, MITF inhibitor project, cell-based, SK-MEL-5, cherry-picked, set 3 (AID 493073); assay type: functional
T2 sequence (O75030 whole entry): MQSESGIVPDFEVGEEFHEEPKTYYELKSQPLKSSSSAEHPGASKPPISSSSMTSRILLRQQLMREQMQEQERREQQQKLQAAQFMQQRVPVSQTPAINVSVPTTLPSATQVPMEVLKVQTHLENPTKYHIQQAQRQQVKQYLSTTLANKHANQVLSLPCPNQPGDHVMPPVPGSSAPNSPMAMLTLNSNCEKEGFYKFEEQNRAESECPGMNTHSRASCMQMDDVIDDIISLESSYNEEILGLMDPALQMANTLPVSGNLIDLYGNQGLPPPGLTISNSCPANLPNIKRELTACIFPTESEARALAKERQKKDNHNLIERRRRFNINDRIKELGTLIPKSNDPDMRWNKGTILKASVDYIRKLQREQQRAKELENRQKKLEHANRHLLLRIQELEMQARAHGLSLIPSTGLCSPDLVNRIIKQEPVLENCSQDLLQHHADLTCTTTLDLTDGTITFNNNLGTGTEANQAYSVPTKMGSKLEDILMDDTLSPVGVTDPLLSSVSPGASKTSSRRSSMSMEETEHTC

BJ [8] = assay: cells; assay type: functional, cell-based; conditions: Homo sapiens
Paired box protein Pax-8 = Paired box protein Pax-8 (Homo sapiens, UniProt Q06710); assay: inhibitors of PAX8-driven TPO luciferase reporter, dose response, RMG-I cells, cherry-pick (AID 687027); assay type: functional, cell-based;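 note: luciferase reporter driven by Pax8 target thyroperoxidase promoter measured by SteadyGlo luminescence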
Paired box protein Pax-8, sequence (Q06710 whole entry): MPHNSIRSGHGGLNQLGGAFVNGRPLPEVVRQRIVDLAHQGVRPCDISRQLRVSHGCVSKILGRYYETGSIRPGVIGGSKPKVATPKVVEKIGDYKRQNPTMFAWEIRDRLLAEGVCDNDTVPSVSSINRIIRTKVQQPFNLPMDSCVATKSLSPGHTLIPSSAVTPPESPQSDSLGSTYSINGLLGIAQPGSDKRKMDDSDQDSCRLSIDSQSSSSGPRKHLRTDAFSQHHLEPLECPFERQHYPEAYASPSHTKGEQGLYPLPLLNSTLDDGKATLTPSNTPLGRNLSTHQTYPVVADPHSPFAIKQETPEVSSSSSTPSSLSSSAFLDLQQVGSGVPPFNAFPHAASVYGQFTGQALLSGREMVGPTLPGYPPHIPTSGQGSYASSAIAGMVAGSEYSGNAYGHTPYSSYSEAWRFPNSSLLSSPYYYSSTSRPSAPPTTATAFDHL

[9] = cytotoxicity in HPDE-C7 cells, cell-based, fluorescence, HTS (AID 430); assay type: functional; conditions: Homo sapiens
[10] = THP-1 cell cytotoxicity, dose response, cytotoxicity control for non-replicating M. tuberculosis project (AID 489025); assay type: functional
[11] = microbe, parasite or virus in culture; assay type: functional; conditions: Mycobacterium tuberculosis
[12] = cytotoxicity in KRAS-transformed pancreatic duct cells, primary screen, cell-based, fluorescence, HTS (AID 431); assay type: functional; conditions: Homo sapiens;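 note: cell line used: HPDE-C7K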
[13] = Luminescence Cell-Based Dose Confirmation HTS to Identify Activators of 5'UTR Stem-Loop Driven Alpha-Synuclein mRNA Translation in H4 Neuroglioblastoma Cells. [Related pubchem assays: 1829 (Project Summary), 1814 (Primary HTS)]; assay type: functional
[14] = biological target: Peroxisome proliferator-activated receptor gamma/Nuclear receptor coactivator 2 (Homo sapiens, UniProt P37231); assay: (§1) TR-FRET dose response biochemical High Throughput Screening assay for agonists of the steroid receptor coactivator 2 (SRC-2) recruitment by the peroxisome proliferator-activated receptor gamma (PPAR gamma): non-selective agonists. [Related pubchem assays: 1297, 1032 ]; assay type: functional
[15] = biological target: Peroxisome proliferator-activated receptor gamma/Nuclear receptor coactivator 1 (Homo sapiens, UniProt P37231); assay: as §1, with “1 (SRC-1)” for “2 (SRC-2)”, “assays (depositor defined):AID1300, AID1808, AID504735, AID631]” for “assays: 1297, 1032 ]”; assay type: protein assay
[16] = biological target: Peroxisome proliferator-activated receptor gamma/Nuclear receptor coactivator 3 (Homo sapiens, UniProt P37231); assay: as §1, with “3 (SRC-3)” for “2 (SRC-2)”, “1301 (Confirmation screen.), 1048 (Primary screen.)]” for “1297, 1032 ]”; assay type: functional
HEK293 [17] = assay: NOD2 signaling inhibitors in MDP-stimulated cells, cell-based, uHTS, luminescence (AID 2001); assay type: functional; conditions: Homo sapiens
HEK293 [18] = assay: cells; assay type: functional, cell-based; conditions: Homo sapiens
HEK293 [19] = assay: cells; assay type: functional, cell-based; conditions: Homo sapiens; remark: listed apart in the source
[20] = inhibitors of firefly luciferase expression or activity, dose response, H4 neuroglioma cells, luminescence (AID 1990); assay type: functional, cell-based
[21] = Luminescence Cell-Based Dose Response HTS to Identify Inhibitors of 5'UTR Stem-Loop Driven Prion Protein mRNA Translation in H4 Neuroglioblastoma Cells. [Related pubchem assays: 1827 (Project Summary), 1813 (Primary HTS)]; assay type: functional
[22] = biological target: Nucleotide-binding oligomerization domain-containing protein 2 (Homo sapiens, UniProt Q9HC29); assay: NOD2 signaling inhibitors, cell-based, luminescence, uHTS, HEK293 (AID 1566); assay type: functional
Nucleotide-binding oligomerization domain-containing protein 2, sequence (Q9HC29 whole entry, the tested form may be a part): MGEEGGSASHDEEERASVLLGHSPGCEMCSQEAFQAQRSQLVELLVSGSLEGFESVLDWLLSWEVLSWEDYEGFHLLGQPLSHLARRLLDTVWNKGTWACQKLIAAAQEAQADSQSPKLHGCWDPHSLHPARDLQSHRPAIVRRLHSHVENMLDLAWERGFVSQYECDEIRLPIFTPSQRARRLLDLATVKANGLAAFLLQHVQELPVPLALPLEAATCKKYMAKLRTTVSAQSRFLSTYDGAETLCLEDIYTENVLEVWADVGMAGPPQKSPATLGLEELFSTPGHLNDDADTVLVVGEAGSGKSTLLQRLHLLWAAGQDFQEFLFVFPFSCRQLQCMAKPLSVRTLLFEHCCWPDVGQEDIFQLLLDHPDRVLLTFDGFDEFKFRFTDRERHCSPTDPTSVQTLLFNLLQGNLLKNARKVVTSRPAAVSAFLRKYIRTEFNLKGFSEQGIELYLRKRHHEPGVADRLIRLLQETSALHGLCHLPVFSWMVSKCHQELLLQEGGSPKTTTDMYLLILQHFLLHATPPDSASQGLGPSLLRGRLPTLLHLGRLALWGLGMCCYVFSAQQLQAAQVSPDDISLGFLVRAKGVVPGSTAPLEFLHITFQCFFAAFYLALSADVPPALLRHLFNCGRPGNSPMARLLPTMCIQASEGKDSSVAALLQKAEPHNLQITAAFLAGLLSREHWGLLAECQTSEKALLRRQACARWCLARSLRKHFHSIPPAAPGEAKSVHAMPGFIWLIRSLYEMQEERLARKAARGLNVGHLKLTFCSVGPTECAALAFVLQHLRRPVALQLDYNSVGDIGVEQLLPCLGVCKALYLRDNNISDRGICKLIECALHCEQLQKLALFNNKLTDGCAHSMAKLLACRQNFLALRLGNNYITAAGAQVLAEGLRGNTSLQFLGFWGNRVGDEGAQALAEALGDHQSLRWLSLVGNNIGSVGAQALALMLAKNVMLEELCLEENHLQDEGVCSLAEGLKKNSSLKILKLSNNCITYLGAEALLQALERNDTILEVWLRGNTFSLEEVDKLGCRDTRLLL

[23] = inhibitors of SNCA 5'UTR-driven reporter translation, confirmation, H4 neuroglioma cells, luminescence (AID 1988); assay type: functional, cell-based
HEK293 [24] = assay: NOD1 signaling inhibitors, primary screen, cell-based, luminescence, uHTS (AID 1578); assay type: functional; conditions: Homo sapiens
BJ [25] = assay: cytotoxicity toward Ras-transformed BJeLR fibroblasts, dose response, cell-based, alamar blue fluorescence, cherrypicked samples (AID 2631); assay type: functional; conditions: Homo sapiens;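 note: confirmatory dose-response assay in RAS-dependent BJ fibroblasts engineered with TERT, LT and ST, with cytotoxicity read by fluorescence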
HEK293 [26] = assay: cells; assay type: functional, cell-based; conditions: Homo sapiens; remark: listed apart in the source
INS1 = assay: beta cell apoptosis inhibitors, cytokine rescue, dose response, luminescence, retest (AID 449756); assay type: functional, cell-based; conditions: Rattus norvegicus;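 note: cell death triggered by IL-1 beta plus TNF-alpha plus IFN-gamma mixture; protective hits raise ATP signal compared with cytokine alone wells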
SUMO-activating enzyme = SUMO-activating enzyme (Homo sapiens, UniProt Q9UBT2); assay: SUMOylation inhibitor hit validation, confirmation, SUMOylation inhibitor project, biochemical, AlphaScreen (AID 2018); assay type: functional
SUMO-activating enzyme, sequence (Q9UBE0 whole entry): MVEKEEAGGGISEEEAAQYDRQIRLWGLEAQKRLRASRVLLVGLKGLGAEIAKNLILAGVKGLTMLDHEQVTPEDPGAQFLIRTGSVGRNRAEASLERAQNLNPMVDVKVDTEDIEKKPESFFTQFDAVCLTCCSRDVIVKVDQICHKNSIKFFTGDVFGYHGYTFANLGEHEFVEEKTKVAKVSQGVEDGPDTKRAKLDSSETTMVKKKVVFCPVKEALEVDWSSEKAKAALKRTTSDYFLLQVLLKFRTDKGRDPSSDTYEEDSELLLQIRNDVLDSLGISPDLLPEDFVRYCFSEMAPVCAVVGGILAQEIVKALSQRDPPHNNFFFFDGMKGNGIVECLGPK
SUMO-activating enzyme, sequence (Q9UBT2 whole entry): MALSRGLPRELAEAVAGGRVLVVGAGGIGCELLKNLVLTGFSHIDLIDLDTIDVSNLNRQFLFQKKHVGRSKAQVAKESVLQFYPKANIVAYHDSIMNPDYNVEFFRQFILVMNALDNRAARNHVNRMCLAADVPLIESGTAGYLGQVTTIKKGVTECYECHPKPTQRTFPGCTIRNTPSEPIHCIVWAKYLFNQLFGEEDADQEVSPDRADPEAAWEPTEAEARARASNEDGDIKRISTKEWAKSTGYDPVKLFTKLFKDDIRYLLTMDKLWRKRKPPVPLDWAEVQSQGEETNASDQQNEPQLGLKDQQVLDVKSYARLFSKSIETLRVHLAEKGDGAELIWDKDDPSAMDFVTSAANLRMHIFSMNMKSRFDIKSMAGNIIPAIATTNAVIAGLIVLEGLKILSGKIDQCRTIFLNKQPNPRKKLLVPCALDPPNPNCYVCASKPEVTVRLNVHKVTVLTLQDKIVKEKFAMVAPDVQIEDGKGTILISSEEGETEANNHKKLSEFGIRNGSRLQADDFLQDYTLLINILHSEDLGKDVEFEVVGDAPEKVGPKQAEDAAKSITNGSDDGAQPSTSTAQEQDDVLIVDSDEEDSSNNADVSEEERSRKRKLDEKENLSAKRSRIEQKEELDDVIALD

## CCOC(=O)C[n+]1c(C)sc2ccc(OC)cc21
Coagulation factor XII
  IC50: > 50 µM (inactive)
Large T antigen
  IC50: 22.1 µM (active)
Cytochrome P450 2D6
  AC50: 12.6 µM (inconclusive)

## Nc1nnnn1/N=C/C(Br)=C/c1ccccc1
[1]
  EC50: > 120 µM (not active)
H4
  EC50: > 120 µM (not active)
BJ [2]
  EC50: 5.12 µM (inconclusive)
[3]
  EC50: 3.95 µM (active)
[4]
  CC50: 5.79 µM (active)
[5]
  CC50: 10 µM (active)
cells
  IC50: 5.76 µM (active)
BJ [6]
  EC50: > 38 µM (inconclusive)
[7]
  AC50: 5.44 µM (active)
BJ [8]
  EC50: > 150 µM (inconclusive)
Paired box protein Pax-8
  AC50: 1.36 µM (active)
[9]
  EC50: 2.37 µM (active)
[10]
  CC50: 5.96 µM (active)
[11]
  CC50: 6.31 µM (active)
[12]
  EC50: 2.94 µM (active)
[13]
  EC50: 17.4 µM (active)

## CCOc1ccc(S(=O)(=O)N(C)c2ccc(OCC(=O)Nc3nc(-c4cc(OC)ccc4OC)cs3)cc2)cc1
[14]
  EC50: 34.8 µM (not active)
[15]
  EC50: 36.5 µM (inactive)
[16]
  EC50: > 79.4 µM (not active)

## O=C(N/N=C/c1ccc([N+](=O)[O-])o1)c1cc2ccccc2o1
HEK293 [17]
  IC50: 17.8 µM (inactive)
BJ [2]
  EC50: 21.2 µM (active)
[3]
  EC50: 23.8 µM (active)
HEK293 [18]
  IC50: 16.1 µM (active)
[4]
  CC50: > 20 µM (active)
[5]
  CC50: 17 µM (active)
cells
  IC50: 1.85 µM (active)
HEK293 [19]
  IC50: > 20 µM (inactive)
[20]
  EC50: > 120 µM (not active)
BJ [6]
  EC50: 14.1 µM (inconclusive)
[7]
  AC50: 5.99 µM (active)
[21]
  EC50: > 60 µM (not active)
BJ [8]
  EC50: 10.7 µM (active)
[22]
  EC50: 10.5 µM (active)
[23]
  EC50: > 120 µM (not active)
HEK293 [24]
  EC50: 7.3 µM (active)
BJ [25]
  EC50: 4.63 µM (inconclusive)
HEK293 [26]
  IC50: > 20 µM (inactive)
[10]
  CC50: 22 µM (active)
INS1
  AC50: 2.63 µM (active)

## CC(=O)Nc1ccc(S(=O)(=O)Nc2nc3ccccc3nc2Nc2ccc3ccccc3c2)cc1
SUMO-activating enzyme
  IC50: > 100 µM (inactive)
